Reference: ChEMBL document CHEMBL3751789, “Synthesis, isomerization and biological activity of novel 2-selenohydantoin derivatives” (Bioorg Med Chem, 2016)
The source made the active and inactive calls. The rule behind the calls is not given here.

Assays:
[1] = Antioxidant activity assessed as peroxide reduction rate at 80 uM using H2O2/4-aminoantipyrine as substrate/hydrogen-donar; assay type: physicochemical
[2] = Antioxidant activity assessed as peroxide reduction rate at 80 uM using H2O2/pyrocatechol as substrate/hydrogen-donar; assay type: physicochemical
[3] = Antioxidant activity assessed as peroxide reduction rate at 80 uM using H2O2/guaiacol as substrate/hydrogen-donar by ABTS-based assay; assay type: physicochemical
[4] = Antioxidant activity assessed as peroxide reduction rate at 80 uM using H2O2/pyrogallol as substrate/hydrogen-donar by ABTS-based assay; assay type: physicochemical
[5] = Antioxidant activity assessed as peroxide reduction rate at 80 uM using H2O2/GSH as substrate/hydrogen-donar by GPx-based assay; assay type: physicochemical
[6] = Antioxidant activity assessed as electrochemical reduction using glass carbon electrode by cyclic voltammetric analysis; assay type: physicochemical
[7] = Antioxidant activity assessed as electrochemical reduction using Au electrode by cyclic voltammetric analysis; assay type: physicochemical
[8] = Antioxidant activity assessed as oxidation potential using Au electrode by cyclic voltammetric analysis; assay type: physicochemical
[9] = Antioxidant activity assessed as oxidation potential using glass carbon electrode by cyclic voltammetric analysis; assay type: physicochemical
MCF7 = test: Cytotoxicity against human MCF7 cells after 48 hrs by MTT assay; assay type: functional
SiHa = test: Cytotoxicity against human SiHa cells after 48 hrs by MTT assay; assay type: functional
[10] = (§1) Cytotoxicity against HEK293 cells after 48 hrs by MTT assay; assay type: cell-based; details: human, HEK293 cells
HepG2 = test: Cytotoxicity against human HepG2 cells after 48 hrs by MTT assay; assay type: functional
HEK293 [11] = test: as §1; assay type: cell-based; details: human, hek293, 48 h
HEK293 [12] = test: Selectivity index, ratio CC50 for HEK293 cells to CC50 for human MCF7 cells; assay type: functional
HEK293 [13] = test: Selectivity index, ratio CC50 for HEK293 cells to CC50 for human HepG2 cells; assay type: functional
HEK293 [14] = test: Selectivity index, ratio CC50 for HEK293 cells to CC50 for human SiHa cells; assay type: functional

Structure (SMILES)	Activity [1] [µM/min]	Activity [2] [µM/min]	Activity [3] [µM/min]	Activity [4] [µM/min]	Activity [5] [µM/min]	Activity [6] [V]	Activity [7] [V]	Activity [8] [V]	Activity [9] [V]	CC50 (MCF7; MCF7, 48 h) [µM]	CC50 (SiHa)	CC50 at 48 h [10] [µM]	CC50 (HepG2; HepG2, 48 h) [µM]	CC50 (MCF7)	CC50 (HEK293 [11])	Selectivity Index (HEK293 [12])	Selectivity Index (HEK293 [13])	Selectivity Index (HEK293 [14])	CC50 (HepG2)
CCOC(=O)CNC(=[Se])NC1CCCCC1	0	1.3	0	0	82	–	–	–	–	–	–	–	–	–	–	–	–	–	–
O=C1/C(=C/c2ccccn2)N=C([Se]CC[Se]C2=N/C(=C\c3ccccn3)C(=O)N2C2CCCCC2)N1C1CCCCC1	–	–	–	–	–	-2.61	-1.86	1.28	1.46	–	–	–	–	–	–	–	–	–	–
O=C1/C(=C/c2ccccn2)NC(=[Se])N1C1CCCCC1	3	0	0	0	138	-2.2	-1.81	1.23	1.16	–	–	–	–	–	–	–	–	–	–
C=CCN1C(=O)CNC1=S	–	–	–	–	–	–	–	–	–	35.2	42.4 µM	58.2	40.7	–	–	–	–	–	–
C=CCN1C(=O)/C(=C/c2ccccn2)N=C1SC	–	–	–	–	–	–	–	–	–	–	102 µM	–	56.7	inactive	Not Active	–	–	–	–
C=CCN1C(=O)/C(=C/c2ccccn2)NC1=[Se]	0	0	0	0	79	-2.15	-1.79	1.21	1.2	31.2	23.6 µM	42.6	29.8	–	–	>2	>2	>2	–
C=CCN1C(=O)/C(=C/c2ccccn2)N=C1[Se]C	0	0	0	0	0	–	–	–	–	7.18	3.66 µM	12.6	6.62	–	–	>2	>2	>2	–
O=c1c2ccccc2[se]n1-c1ccccc1 [EBSELEN]	–	–	–	–	140	–	–	–	–	–	–	–	–	–	–	–	–	–	–
C=CCN1C(=O)/C(=C/c2ccccn2)NC1=S	0	0	0	0	0	–	–	–	–	–	inactive	–	–	inactive	Not Active	–	–	–	inactive
C=CCN1C(=O)CNC1=[Se]	–	–	–	–	–	–	–	–	–	44.1	12.7 µM	10.3	16.4	–	–	–	–	–	–
